The text below walks through data of patent US7056922B2, “Acylamino cyclopropane derivatives” (Pfizer Inc, priority 2000, dated 2006).

Usually Ki stands for a measure of affinity in units of concentration, obtained from inhibition or displacement.

One assay deals with dopamine D2 receptor (Homo sapiens, UniProt P14416). Kind of assay: Dopamine D2 receptor binding (Binding data table).
In assay [1] the target is human dopamine D3 receptor (Homo sapiens, UniProt P35462). Kind of assay: Displacement of [3H] 7 OH-DPAT binding to membranes of CHO cells expressing human dopamine D3 receptor. Conditions: [3H] 7 OH-DPAT 0.4 nM, CHO cell membranes, cloned human D3 receptor. The method, then: The inhibition constants (Ki) of test compounds were measured by displacement of [^3H] 7 OH-DPAT binding to membrane preparations from Chinese hamster ovary cells expressing human dopamine D3 receptor. Cells expressing the human D3 receptor were homogenized with Polytron and centrifuged for 10 min at 4° C. at 20,000 RPM in a Sorvall RCB5 centrifuge with a SS34 rotor. After repeating the washing once more, the pellet was resuspended in buffer consisting of 120 mM NaCl, 5 mM KCl, 5 mM MgCl2, 2 mM CaCl2 and 50 mM tris, pH 7.4 and the protein content determined using bovine serum albumin as a standard (Bradford, M. M. (1976) Anal. Biochem. 72, 248–254). Compounds at varying concentrations were incubated with the membrane preparations in the presence of 0.4 nM [^3H] 7 OH-DPAT. The assay was incubated for 15 min at 37° C. and the reaction was terminated by rapid filtration with 50 mM Tris pH 7.4, through GF/B filters previously soaked in 0.5% polyethyleneimine. Filters were dried overnight and counted in Betaplate Scintillation counter. Non-specific binding was defined as the radioligand binding remaining after incubation in the presence of 10 μM butacomol. For competition curves, seven concentrations (single log dilutions) of competing unlabeled, compounds were used. Competition curves were analysed simultaneously whenever possible using non-linear least-squares fitting procedures, capable of fitting one, two or three site models.
A general note: Displacement assays read how much labelled ligand stays bound in the presence of the test substance.

Each structure is given as a SMILES string. Structures can show the parent of a compound that is named as a salt.

Chain of human dopamine D3 receptor (P35462 whole entry): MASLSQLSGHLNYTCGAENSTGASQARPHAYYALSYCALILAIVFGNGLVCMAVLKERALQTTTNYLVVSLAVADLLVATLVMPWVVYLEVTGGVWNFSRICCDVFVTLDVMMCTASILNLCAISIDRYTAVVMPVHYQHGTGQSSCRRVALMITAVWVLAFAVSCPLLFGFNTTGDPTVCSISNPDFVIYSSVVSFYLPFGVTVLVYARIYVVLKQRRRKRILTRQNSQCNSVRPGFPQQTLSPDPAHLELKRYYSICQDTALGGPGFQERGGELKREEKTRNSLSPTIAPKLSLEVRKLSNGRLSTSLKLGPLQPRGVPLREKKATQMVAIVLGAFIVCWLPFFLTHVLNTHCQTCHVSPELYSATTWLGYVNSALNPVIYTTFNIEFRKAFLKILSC
Chain of dopamine D2 receptor (P14416 whole entry, species assumed): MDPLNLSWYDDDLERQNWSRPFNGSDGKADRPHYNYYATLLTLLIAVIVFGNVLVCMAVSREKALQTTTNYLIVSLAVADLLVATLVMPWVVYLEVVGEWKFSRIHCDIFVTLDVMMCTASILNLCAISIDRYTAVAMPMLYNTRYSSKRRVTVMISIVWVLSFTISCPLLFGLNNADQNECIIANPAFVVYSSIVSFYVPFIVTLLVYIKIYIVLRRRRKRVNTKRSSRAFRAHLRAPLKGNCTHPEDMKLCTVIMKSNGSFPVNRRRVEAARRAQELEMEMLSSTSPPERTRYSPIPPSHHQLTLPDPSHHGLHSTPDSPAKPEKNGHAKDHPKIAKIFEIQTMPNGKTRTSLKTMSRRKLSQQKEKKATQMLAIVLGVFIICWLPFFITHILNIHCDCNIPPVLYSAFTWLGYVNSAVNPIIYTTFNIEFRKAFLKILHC

Take `Cc1cccc(C)c1C(=O)NCC1CC1CN1CCN(c2cc(C(F)(F)F)nc(C(C)(C)C)n2)CC1` (racemic) [N-{(Z)-2-[4-(2-tert-Butyl-6-trifluoromethyl-pyrimidin-4-yl)-piperazin-1-ylmethyl]-cyclopropylmethyl}-2,6-dimethyl-benzamide, dihydrochloride salt]: the values for the Ki (on dopamine D2 receptor; in assay [1]) were > 0.77 µM and 0.016 µM, respectively.

On to `CC(C)(C)c1nc(N2CCN(CC3CC3CNC(=O)c3ccc(Cl)cc3)CC2)cc(C(F)(F)F)n1` (racemic) [[Z](+/−)N-{2-[4-(2-tert-Butyl-6-trifluoromethyl-pyrimidin-4-yl)-piperazin-1-ylmethyl]-cyclopropylmethyl}-4-chloro-benzamide], for which the figures for the Ki (on dopamine D2 receptor; in assay [1]) were > 0.74 µM and 0.031 µM, respectively.

On to `Cc1cccc(C)c1C(=O)NCC1CC1CN1CCN(c2cccc(C(F)(F)F)c2)CC1` (single isomer, unassigned) [2,6-Dimethyl-N-{(E)-2-[4-(3-trifluoromethyl-phenyl)-piperazin-1-ylmethyl]-cyclopropylmethyl}benzamide], for which the inhibitory constant (Ki) worked out at 0.076 µM at dopamine D2 receptor and 0.002 µM in assay [1].

Consider `Cc1cccc(C)c1C(=O)NCC1CC1CN1CCN(c2cccc(C(F)(F)F)c2)CC1` (single isomer, unassigned) [2,6-Dimethyl-N-{(Z)-2-[4-(3-trifluoromethyl-phenyl)-piperazin-1-ylmethyl]-cyclopropylmethyl}benzamide], for which the Ki at dopamine D2 receptor amounted to 0.46 µM; in assay [1] it was 0.005 µM.
